From patent publication US10611750B2, “Tetrahydroquinoline compositions as bet bromodomain inhibitors” (FORMA Therapeutics, Inc., priority 2013, dated 2020) come the findings set out here.

The test system of experiment [1] is acute myelocytic leukemia (AML) cell line MV4-11. The experiment in a line: Oncology cell growth assay (3-day proliferation, CellTiter-Glo). Type of experiment: cell-based. The settings on record: Homo sapiens, MV4-11 cells, 3000 cells/well, compounds listed under IC50 range headings, read-out: MV411 IC50 (gIC50, inhibition of proliferation). The procedure, abridged:
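Compounds were serially diluted 3-fold in DMSO, giving final well concentrations from 10 down to 0.0045 μM. MV4-11 cells were then seeded at 3000 cells/well in RPMI 1640 with 10% FBS and incubated 72 hours. CellTiter-Glo signal was measured and gIC50 obtained by four-parameter logistic regression.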
In general terms: ATP-based viability assays read luminescence as a measure of living cells.

Experiment [2] concerns the target T1, BRD4 Bromodomain 2 (BRD4 BD2) (Homo sapiens, UniProt O60885).
T1 construct: 333-460 were cloned, expressed, and purified to homogeneity
The experiment in a line: AlphaScreen binding assay, BRD4 BD2. The conditions noted are these: His-tagged BRD4 BD2 100 nM, biotinylated H4 (1-21) K5/8/12/16 tetra-acetylated peptide 100 nM, compounds listed under IC50 range headings. The procedure, abridged: (§1)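 An AlphaScreen competition format was used with His-BRD4 BD1 or BD2 and biotin-H4 K5/8/12/16-acetyl peptide, each at matched final levels of 50 nM (BD1) or 100 nM (BD2). Incubation in HEPES/NaCl buffer with 0.1% BSA and 0.01% Triton X-100 ran ≥1 h before IC50 determination.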
On the technique in general: Alpha assays give light when donor and acceptor beads are brought close together.

The target of experiment [3] is T2, BRD4 Bromodomain 1 (BRD4 BD1) (Homo sapiens, UniProt O60885).
T2 construct: 44-168 and BRD4 BD2
The experiment in a line: AlphaScreen binding assay, BRD4 BD1. The settings on record: His-tagged BRD4 BD1 50 nM, biotinylated H4 (1-21) K5/8/12/16 tetra-acetylated peptide 50 nM, compounds listed under IC50 range headings. The method, boiled down: as §1

Where two headings read alike, the source gives them in different places. Some results are limits rather than exact numbers.

On to `COC(=O)N1c2ccc(-c3cnn(C4CCNCC4)c3)c(Oc3ccc(C#N)cc3Cl)c2CC[C@@H]1C` [I-134, (S)-methyl 5-(2-chloro-4-cyanophenoxy)-2-methyl-6-(1-(piperidin-4-yl)-1H-pyrazol-4-yl)-3,4-dihydroquinoline-1(2H)-carboxylate], for which the IC50 in experiment [1] (MV4-11, 72 h) is below 500 nM; in experiment [2] it was below 50 nM; in experiment [3], 100 to 1000 nM.

For the compound `COC(=O)N1c2ccc(-c3cnn(CC(C)(C)O)c3)c(Oc3ccc(C(F)(F)F)cn3)c2CC[C@@H]1C` [I-555], the IC50 in experiment [1] (MV4-11, 72 h) was above 1000 nM; in experiment [2], 50 to 500 nM; in experiment [3], 1000 to 10000 nM.

`CC(=O)N1c2ccc(-c3cnn(CCS(C)(=O)=O)c3)c(OCC3CCOCC3)c2CC[C@@H]1C` [I-413]: the IC50 in experiment [1] (MV4-11, 72 h) is below 500 nM; in experiment [2] it was 50 to 500 nM; in experiment [3], 100 to 1000 nM.

For the compound `CC(=O)N1c2ccc(-c3cnn(C4CC4)c3)c(OC3CC(F)(F)C3)c2CC[C@@H]1C` [I-51, (S)-1-(6-(1-cyclopropyl-1H-pyrazol-4-yl)-5-(3,3-difluorocyclobutoxy)-2-methyl-3,4-dihydroquinolin-1(2H)-yl)ethanone], the IC50 in experiment [1] (MV4-11, 72 h) was below 500 nM; in experiment [2] it was below 50 nM; in experiment [3] it was 100 to 1000 nM.

Regarding `C[C@H]1CCc2c(ccc(-c3cnn(C4CCNCC4)c3)c2Oc2ncccc2C(F)(F)F)N1C(=O)C1CC1` [I-539], the IC50 in experiment [1] (MV4-11, 72 h) was below 500 nM; in experiment [2] it was 50 to 500 nM; in experiment [3], 1000 to 10000 nM.

As for `CC(=O)N1c2ccc(-c3cnn(C4CC4)c3)c(OCC(C)(C)CO)c2CC[C@@H]1C` [I-39, (S)-1-(6-(1-cyclopropyl-1H-pyrazol-4-yl)-5-(3-hydroxy-2,2-dimethylpropoxy)-2-methyl-3,4-dihydroquinolin-1(2H)-yl)ethanone], the IC50 in experiment [1] (MV4-11, 72 h) was 500 to 1000 nM; in experiment [2], below 50 nM; in experiment [3], 100 to 1000 nM.

On to `CCCOc1c(C2CCN(C(=O)OC)CC2)ccc2c1CC[C@H](C)N2C(C)=O` [I-357, methyl (S)-4-(1-acetyl-2-methyl-5-propoxy-1,2,3,4-tetrahydroquinolin-6-yl)piperidine-1-carboxylate], for which the results for the IC50 in experiment [1] (72 hours), in experiment [2] and in experiment [3] were above 1000 nM, at least 500 nM and at least 10000 nM, respectively.

In the case of `CC(=O)N1c2ccc(-c3cnn(C4CC4)c3)c(OC3CN(C(C)C)C3)c2CC[C@@H]1C` [I-254, (S)-1-(6-(1-cyclopropyl-1H-pyrazol-4-yl)-5-(1-isopropylazetidin-3-yloxy)-2-methyl-3,4-dihydroquinolin-1(2H)-yl)ethanone], the IC50 in experiment [1] (MV4-11, 72 h) is above 1000 nM; in experiment [2], 50 to 500 nM; in experiment [3], 1000 to 10000 nM.

As to `CC(=O)N1c2ccc(-c3cnn(C4CCNCC4)c3)c(Oc3ncc(C(F)(F)F)cn3)c2CC[C@@H]1C` [I-519], the IC50 in experiment [1] (MV4-11, 72 h) was below 500 nM; in experiment [2] it was 50 to 500 nM; in experiment [3] it was 100 to 1000 nM.

With `CC(=O)N1c2ccc(-c3cnn(C4CC4)c3)c(O[C@H](F)C(N)=O)c2CC[C@@H]1C` (single isomer, unassigned) [I-63], the IC50 in experiment [1] (72 hours) is above 1000 nM; in experiment [2], 50 to 500 nM; in experiment [3] it was 1000 to 10000 nM.

With `CC(=O)N1c2ccc(-c3cnn(C4CC4)c3)c(Oc3ncccc3C)c2CC[C@@H]1C` [I-286, (S)-1-(6-(1-cyclopropyl-1H-pyrazol-4-yl)-2-methyl-5-(3-methylpyridin-2-yloxy)-3,4-dihydroquinolin-1 (2H)-yl)ethanone], the IC50 in experiment [1] (MV4-11, 72 h) was below 500 nM; in experiment [2] it was 50 to 500 nM; in experiment [3], 1000 to 10000 nM.

On to `COC(=O)N1c2ccc(-c3cnn(C4CCN(C)C4)c3)c(Oc3ccc(F)cc3)c2CC[C@@H]1C` (stereo partly drawn) [I-249, (2S)-methyl 5-(4-fluorophenoxy)-2-methyl-6-(1-(1-methylpyrrolidin-3-yl)-1H-pyrazol-4-yl)-3,4-dihydroquinoline-1(2H)-carboxylate], for which the IC50 in experiment [1] (MV4-11, 72 h) was below 500 nM; in experiment [2], below 50 nM; in experiment [3], 100 to 1000 nM.
